# Data from patent US20230399312A1, “SUBSTITUTED PYRIMIDINES AND METHODS OF USE” (THERAVANCE BIOPHARMA R&D IP, LLC, priority 2020, published 2023).
# Tests used:
# [1] = system: TGF-β-stimulated SMAD3 phosphorylation in BEAS-2B cells; assay: Cellular ALK5 potency assay, inhibition of TGF-β stimulated pSMAD3 formation in BEAS-2B cells; format: cell-based; conditions: Homo sapiens, pSMAD3, TGF-β 10 ng/mL, read-out: BEAS2B pIC50 (converted)
# In short: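 Potency is expressed as pIC50, based on dose-dependent reduction of TGF-β-induced pSMAD3 AlphaLISA signal relative to stimulated cells without compound. BEAS-2B cells received compound 1 h before a 30 min, 10 ng/mL TGF-β challenge.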
# [2] = target: T1, recombinant human ALK5 (TGF-βR1) protein (Homo sapiens, UniProt P36897); assay: Biochemical ALK5 (TGF-βR1) assay to measure pKi (LANCE Ultra ULight kinase assay); conditions: apparent pKi, converted from pIC50 by Cheng-Prusoff
# T1 construct: purchased Life Technologies PR9075A
# T1 sequence (P36897 34-503): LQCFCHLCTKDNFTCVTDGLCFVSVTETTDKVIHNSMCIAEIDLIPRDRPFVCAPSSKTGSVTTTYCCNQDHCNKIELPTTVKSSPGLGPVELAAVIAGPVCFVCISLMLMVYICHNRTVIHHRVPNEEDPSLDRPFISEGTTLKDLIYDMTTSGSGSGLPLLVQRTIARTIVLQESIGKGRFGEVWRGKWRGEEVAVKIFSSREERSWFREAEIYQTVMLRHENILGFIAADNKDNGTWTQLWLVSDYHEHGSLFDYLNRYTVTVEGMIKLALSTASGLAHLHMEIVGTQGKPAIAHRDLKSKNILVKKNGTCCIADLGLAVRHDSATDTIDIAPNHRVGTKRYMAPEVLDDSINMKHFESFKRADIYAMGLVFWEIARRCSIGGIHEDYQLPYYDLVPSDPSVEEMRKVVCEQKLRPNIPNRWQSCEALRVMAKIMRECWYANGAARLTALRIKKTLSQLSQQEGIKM
# In short: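 Enzyme was preincubated with compound for 60 min at room temperature, then ATP (added from a 125 μM 5× stock with 2 mM DTT) started a 60 min reaction at 37 °C. EDTA plus Eu-anti-phospho-Topo2α (Thr1342) antibody stopped it; TR-FRET pIC50 values were converted to pKi by Cheng-Prusoff.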
Ki [2] [nM],SMILES,IC50 [1] [nM]
0.0398 to 0.316,"CNC(=O)[C@H]1CN(c2ccc(Nc3nccc(Nc4ccnc(-c5cccc(C)n5)n4)n3)cc2)CCN1 [Compound 334, (2R)-N-methyl-4-[4-[[4-[[2-(6-methyl-2-pyridyl)pyrimidin-4-yl]amino]pyrimidin-2-yl]amino]phenyl]piperazine-2-carboxamide]",25.1 to 158
0.0398 to 0.316,"COc1cc(Nc2nccc(Nc3ccnc(-c4cccc(C)n4)n3)n2)ccc1CN1C[C@@H](C)N[C@@H](C)C1 [Compound 335, N2-[3-methoxy-4-[[rac-(3S,5R)-3,5-dimethylpiperazin-1-yl]methyl]phenyl]-N4-[2-(6-methyl-2-pyridyl)pyrimidin-4-yl]pyrimidine-2,4-diamine]",25.1 to 158
≤ 0.0316,"Cc1cccc(-c2nccc(Nc3ccnc(Nc4csc(C(=O)N[C@@H]5CCNC5)c4)n3)n2)n1 [Compound 336, 4-[[4-[[2-(6-methyl-2-pyridyl)pyrimidin-4-yl]amino]pyrimidin-2-yl]amino]-N-[(3R)-pyrrolidin-3-yl]thiophene-2-carboxamide]",25.1 to 158
0.0398 to 0.316,"Cc1cccc(-c2nccc(Nc3ccnc(Nc4ccc(N5CCC(C(=O)O[C@@H]6CCNC6)CC5)cc4)n3)n2)n1 [Compound 337, [(3R)-pyrrolidin-3-yl] 1-[4-[[4-[[2-(6-methyl-2-pyridyl)pyrimidin-4-yl]amino]pyrimidin-2-yl]amino]phenyl]piperidine-4-carboxylate]",25.1 to 158
3.98 to 31.6,"Cc1cccc(-c2nccc(Nc3ccnc(Nc4ncc(C(=O)OCC5CNC5)s4)n3)n2)n1 [Compound 338, azetidin-3-ylmethyl 2-((4-((2-(6-methylpyridin-2-yl)pyrimidin-4-yl)amino)pyrimidin-2-yl)amino)thiazole-5-carboxylate]",200 to 1260
0.398 to 3.16,"Cc1cccc(-c2nccc(Nc3ccnc(Nc4nc(CN5CCC[C@@H](C(=O)O)C5)cs4)n3)n2)n1 [Compound 339, (3R)-1-[[2-[[4-[[2-(6-methyl-2-pyridyl)pyrimidin-4-yl]amino]pyrimidin-2-yl]amino]thiazol-4-yl]methyl]piperidine-3-carboxylic acid]",200 to 1260
0.0398 to 0.316,"Cc1cccc(-c2nc(Nc3ccnc(Nc4ccc(N5CCOCC5)cc4)n3)c3nn[nH]c3n2)n1 [Compound 340, N4-[5-(6-methyl-2-pyridyl)-3H-triazolo[4,5-d]pyrimidin-7-yl]-N2-(4-morpholinophenyl)pyrimidine-2,4-diamine]",200 to 1260
0.0398 to 0.316,"Cc1cccc(-c2nccc(Nc3ccnc(Nc4ccc(CN5CCC[C@@H](C(=O)O[C@@H]6CCN(C)C6)C5)cc4)n3)n2)n1 [Compound 341, [(3R)-1-methylpyrrolidin-3-yl] (3R)-1-[[4-[[4-[[2-(6-methyl-2-pyridyl)pyrimidin-4-yl]amino]pyrimidin-2-yl]amino]phenyl]methyl] piperidine-3-carboxylate]",25.1 to 158
0.0398 to 0.316,"Cc1cccc(-c2nccc(Nc3ccnc(Nc4ccc(NC[C@@H]5CCCN5)cc4)n3)n2)n1 [Compound 342, N4-[2-(6-methyl-2-pyridyl)pyrimidin-4-yl]-N2-[4-[[(2S)-pyrrolidin-2-yl]methylamino]phenyl] pyrimidine-2,4-diamine]",25.1 to 158
≤ 0.0316,"Cc1cccc(-c2nccc(Nc3ccnc(Nc4ccc(N5CCC(N)CC5)c(F)c4)n3)n2)n1 [Compound 343, N2-[4-(4-amino-1-piperidyl)-3-fluoro-phenyl]-N4-[2-(6-methyl-2-pyridyl)pyrimidin-4-yl]pyrimidine-2,4-diamine]",25.1 to 158
0.0398 to 0.316,"Cc1cccc(-c2nccc(Nc3ccnc(Nc4ccc(CN5C[C@@H](C)NC[C@@H]5C)cc4)n3)n2)n1 [Compound 344, N2-[4-[[(2S,5R)-2,5-dimethylpiperazin-1-yl]methyl]phenyl]-N4-[2-(6-methyl-2-pyridyl)pyrimidin-4-yl]pyrimidine-2,4-diamine]",25.1 to 158
0.0398 to 0.316,"Cc1cccc(-c2nccc(Nc3ccnc(Nc4cc(C(=O)O[C@H]5CCN(C)C5)cs4)n3)n2)n1 [Compound 345, [(3S)-1-methylpyrrolidin-3-yl] 5-[[4-[[2-(6-methyl-2-pyridyl)pyrimidin-4-yl]amino]pyrimidin-2-yl]amino]thiophene-3-carboxylate]",25.1 to 158
0.0398 to 0.316,"Cc1cccc(-c2nccc(Nc3ccnc(Nc4ccc(NCCN5CCN(C(C)C)CC5)cc4)n3)n2)n1 [Compound 346, N2-[4-[2-(4-isopropylpiperazin-1-yl)ethylamino]phenyl]-N4-[2-(6-methyl-2-pyridyl)pyrimidin-4-yl]pyrimidine-2,4-diamine]",25.1 to 158
0.0398 to 0.316,"CNCCn1cc(-c2ccc(Nc3nccc(Nc4ccnc(-c5cccc(C)n5)n4)n3)cc2)cn1 [Compound 347, N2-(4-(1-(2-(methylamino)ethyl)-1H-pyrazol-4-yl)phenyl)-N4-(2-(6-methylpyridin-2-yl)pyrimidin-4-yl)pyrimidine-2,4-diamine]",25.1 to 158
3.98 to 31.6,"COc1cc(N2CCOCC2)ccc1Nc1nccc(Nc2ccnc(-c3cccc(C)n3)n2)n1 [Compound 348, N2-(2-methoxy-4-morpholino-phenyl)-N4-[2-(6-methyl-2-pyridyl)pyrimidin-4-yl]pyrimidine-2,4-diamine]",200 to 1260
0.398 to 3.16,"Cc1cccc(-c2nccc(Nc3ccnc(Nc4nc(C(=O)N5CCN[C@@H](CO)C5)cs4)n3)n2)n1 [Compound 349, [(3R)-3-(hydroxymethyl)piperazin-1-yl]-[2-[[4-[[2-(6-methyl-2-pyridyl)pyrimidin-4-yl]amino]pyrimidin-2-yl]amino]thiazol-4-yl]methanone]",200 to 1260
0.398 to 3.16,"Cc1cccc(-c2nccc(Nc3ccnc(Nc4ccc(Cl)c(CN5CCSCC5)c4)n3)n2)n1 [Compound 350, N2-[4-chloro-3-(thiomorpholinomethyl)phenyl]-N4-[2-(6-methyl-2-pyridyl)pyrimidin-4-yl]pyrimidine-2,4-diamine]",25.1 to 158
0.0398 to 0.316,"Cc1cccc(-c2nccc(Nc3ccnc(Nc4ccc(C5COCCN5)cc4)n3)n2)n1 (stereo not shown) [Compound 351, N4-[2-(6-methyl-2-pyridyl)pyrimidin-4-yl]-N2-(4-morpholin-3-ylphenyl)pyrimidine-2,4-diamine]",≤ 20
0.0398 to 0.316,"CNC1CCN(S(=O)(=O)c2ccc(Nc3nccc(Nc4ccnc(-c5cccc(C)n5)n4)n3)cc2)CC1 [Compound 352, N2-[4-[[4-(methylamino)-1-piperidyl]sulfonyl]phenyl]-N4-[2-(6-methyl-2-pyridyl)pyrimidin-4-yl]pyrimidine-2,4-diamine]",25.1 to 158
0.0398 to 0.316,"CC(=O)N(CC1CNC1)c1ccc(Nc2nccc(Nc3ccnc(-c4cccc(C)n4)n3)n2)cc1 [Compound 353, N-(azetidin-3-ylmethyl)-N-[4-[[4-[[2-(6-methyl-2-pyridyl)pyrimidin-4-yl]amino]pyrimidin-2-yl]amino]phenyl]acetamide]",25.1 to 158
0.398 to 3.16,"Cc1nc(-c2nccc(Nc3ccnc(Nc4ccc(N5CCOCC5)cc4)n3)n2)ccc1F [Compound 354, N4-[2-(5-fluoro-6-methyl-2-pyridyl)pyrimidin-4-yl]-N2-(4-morpholinophenyl)pyrimidine-2,4-diamine]",25.1 to 158
0.398 to 3.16,"Cc1cccc(-c2nccc(Nc3ccnc(Nc4ccc(NCCN5CCOCC5)cc4)n3)n2)n1 [Compound 355, N4-[2-(6-methyl-2-pyridyl)pyrimidin-4-yl]-N2-[4-(2-morpholinoethylamino)phenyl] pyrimidine-2,4-diamine]",25.1 to 158
0.0398 to 0.316,"Cc1cccc(-c2nccc(Nc3ccnc(Nc4ccc(-c5cnn(CCN(C)C)c5)cc4)n3)n2)n1 [Compound 356, N2-[4-[1-[2-(dimethylamino)ethyl]pyrazol-4-yl]phenyl]-N4-[2-(6-methyl-2-pyridyl)pyrimidin-4-yl]pyrimidine-2,4-diamine]",25.1 to 158
0.0398 to 0.316,"Cc1cccc(-c2nccc(Nc3ccnc(Nc4cccc(NC(=O)C5CCN(C6CCOCC6)CC5)c4)n3)n2)n1 [Compound 357, N-[3-[[4-[[2-(6-methyl-2-pyridyl)pyrimidin-4-yl]amino]pyrimidin-2-yl]amino]phenyl]-1-tetrahydropyran-4-yl-piperidine-4-carboxamide]",25.1 to 158
0.0398 to 0.316,"Cc1cccc(-c2nccc(Nc3ccnc(Nc4ccc(C5=CCC(NC(C)C)CC5)cc4)n3)n2)n1 (stereo not shown) [Compound 358, N2-[4-[4-(isopropylamino)cyclohexen-1-yl]phenyl]-N4-[2-(6-methyl-2-pyridyl)pyrimidin-4-yl]pyrimidine-2,4-diamine]",200 to 1260
0.0398 to 0.316,"Cc1cccc(-c2nccc(Nc3ccnc(Nc4ccc(CN5CCNCC5)cc4)n3)n2)n1 [Compound 359, N4-[2-(6-methyl-2-pyridyl)pyrimidin-4-yl]-N2-[4-(piperazin-1-ylmethyl)phenyl]pyrimidine-2,4-diamine]",25.1 to 158
